The test system of the test is panel of 10 human rhinopicornavirus serotypes HRV-3, -4, -5, -9, -16, -18, -38, -66, -75 and -67 (panel B). The experiment in a line: automated TCID-50 assay, HeLa cells, panel B of 10 human rhinopicornavirus serotypes. It is filed as cell-based. The settings on record: minimum concentration required to inhibit 50% of the tested serotypes, number of serotypes tested in column N, 3 days, 33° C. How it is done: The MIC values were determined by an automated tissue culture infectious dose 50% (TCID-50) assay. HeLa cells in monoloyers in 96-well cluster plates were infected with a dilution of picornavirus which had been shown empirically to produce 80% to 100% cytopathic effect (CPE) in 3 days in the absence of drug. The compound to be tested was serially diluted through 10, 2-fold cycles and added to the infected cells. After a 3 day incubation at 33° C. and 2.5% carbon dioxide, the cells were fixed with a 5% solution of glutaraldehyde followed by staining with a 0.25% solution of crystal violet in water. […]
In the above test procedures, representative compounds of formula I were tested against some the serotypes from either a panel of fifteen human rhinopicornavirus (HRV) serotypes, (noted in the table as panel T) namely, HRV-2, -14, -1A, -1B, -6, -21, -22, -15, -25, -30, -50, -67, -89, -86 and -41 or against some of the serotypes from a panel of 10 human rhinopicornavirus serotypes namely HRV-3, -4, -5, -9, -16, -18, -38, -66, -75 and -67, (noted in the table as panel B) and the MIC value, expressed in micrograms per milliliter […], for each rhinopicornavirus serotype was determined for each picornavirus, example le is given as an example of the data. […]

Take “3-Methyl-5-[3-[4-(2-methyl-tetrazol-5-yl)-2,6-dimethylphenoxy]-propyl]-thiazole [Example 11]”: the Mic50 turned out to be 0.148 µg/mL.

The values above are taken from patent US5846986A, “Therapeutic phenoxyalkylazoles and phenoxyalkylazines” (Sanofi, priority 1997, dated 1998).
